Several values for one entry are separate records, joined by “and”; a condition that tells them apart may be missing. Identical values can stand only once.
B1: MBP: myelin basic protein, a negative control (protein, UniProt P02686 1-304, looked up)
Myelin basic protein: MGNHAGKRELNAEKASTNSETNRGESEKKRNLGELSRTTSEDNEVFGEADANQNNGTSSQDTAVTDSKRTADPKNAWQDAHPADPGSRPHLIRLFSRDAPGREDNTFKDRPSESDELQTIQEDSAATSESLDVMASQKRPSQRHGSKYLATASTMDHARHGFLPRHRDTGILDSIGRFFGGDRGAPKRGSGKDSHHPARTAHYGSLPQKSHGRTQDENPVVHFFKNIVTPRTPPPSQGKGRGLSLSRFSWGAEGQRPGFGYGGRASDYKSAHKGFKGVDAQGTLSKIFKLGGRDSRSGSPMARR

What was measured:
[1] = test system: IL-2 secreted by LN cells; experiment: IL-2 secretion by GA-stimulated LN cells, MSD 9-plex ELISA (Example II); type: cell-based, mouse; conditions: 21 hr
Protocol: Animals at 8 weeks of age were immunized by injection into four footpads using a 1 mL syringe with a 27-G, 1⁄2-inch needle. […] Ten days post-immunization, immunized animals were sacrificed via cervical dislocation. […] The LN cells were isolated by pressing the LN with the plunger end of a sterile syringe. […] Trypan blue exclusion method was used to determine the cell density of viable cells in the suspension. […] Cat. […] LN cells were plated into a 24-well tissue culture plate for drug stimulation. […] Cell debris was removed by centrifugation at ca. 200×g for 10 minutes at 4° C. Cytokines secreted by treated cells were determined on the day of collection by ELISA using mouse TH 1/TH 2 9-Plex Tissue Culture Kit (Meso Scale Discovery; Cat No. […]-2, Lot #: K0032839) which detects Th1 cytokines (IFN-γ, IL-2, IL-12, IL-1β, TNF-α, CXCL1) and Th2 cytokines (IL-4, IL-5 and IL-10). For IFN-γ, culture media also were assayed at 45 hours using mouse IFN-γ Tissue Culture Kit (Meso Scale Discovery; Cat No. […] For the positive control, 0.5 mL of LN cells (5×10^6 cells/well) were treated with 0.5 mL of ConA (5 μg/mL). For the negative control, 0.5 mL of LN cells (5×10^6 cells/well) were treated with 0.5 mL of MBP (20 μg/mL). The LN cells with mock stimulation (enriched DCCM1 medium) were used to monitor the background level of a cytokine. For the cytokine assays, calibration standards or samples were incubated in the MULTI-SPOT or the SINGLE-SPOT plate and each cytokine bound to its corresponding capture antibody. All test samples were run in duplicate. The amount of each cytokine on its distinct spot was quantified using a cytokine-specific detection antibody labeled with MSD SULFO-TAGTM reagent. Electrochemiluminescent signals from immobilized SULFO-TAGTM-labeled complexes on each spot from each well were captured by the MSD SECTOR Imager 6000, which produces a signal directly proportional to the amount of captured cytokine in a test sample. The levels of cytokines in test samples were derived by interpolation from calibration curves with calibration standards of known concentrations using reagents provided with the MSD kits. Kits were used according to the manufacturer's protocols. […] Data are expressed as a response ratio of cytokine concentration in treated cell medium to control DCCM1 medium.

[2] = test system: mouse IL-5 mRNA in primary LN cells; experiment: Mouse IL-5 mRNA in LN cells of immunized SJL/J mice stimulated with Copaxone and GMA lots, normalized to Actβ or GAPDH (Example V); type: cell-based
Protocol: A real-time polymerase chain reaction method was used to measure the expression of cytokine mRNA in GA-stimulated LN cells from GA-immunized SJL/J mice. Normalization of expression with two different housekeeping genes, GAPDH and β-actin, was tested.
Each group consisted of six female SJL/J mice immunized by injection in all four footpads with a total dose of 250 μg of one lot of GA, or mannitol and no GA. Three Copaxone batches and three GMA batches were used to immunize the mice. CFA was included in both GA and mannitol immunizations. Ten days following immunization, LN cell samples isolated from the immunized mice were each stimulated with a concentration of a Copaxone lot and a GMA lot. A positive control of 2.5 μg/mL ConA treated LN cells and a negative control of 10 μg/mL MBP treated cells were included in each group.
In the initial run, a lack of reproducibility was observed when cytokine mRNA levels were normalized to GAPDH mRNA levels. Therefore, the Q-PCR analysis was repeated on the samples, measuring levels of IL-2, IL-4, IL-5, and IL-13, using both GAPDH and β-actin as reference gene.
The RNA isolation and analysis procedures were similar to those described in Example IV. The expression levels of mouse IL-2, IL-4, IL-5 and IL-13 mRNA observed are summarized below in Tables 29 to 36. As shown by the data in Tables 30, 32, 34 and 36, a lack of reproducibility in the findings again was observed when cytokine mRNA levels were normalized to GAPDH mRNA for all cytokines except IL-13.

[3] = test system: mouse IL-5 mRNA in primary LN cells; experiment: Mouse IL-5 mRNA in LN cells of Copaxone P53974-immunized CSJLF1/JRj mice stimulated with twelve GA lots (Example VIII); type: cell-based; conditions: stimulation conc. 2.5 μg/mL; for IL-5 mRNA/GAPDH Fold Change: normalized to GAPDH
Protocol: A real-time polymerase chain reaction method was used to measure the expression of IL-2, IL-4, IL-5, and IL-13 mRNA in LN cells, from GA-immunized mice, following stimulation with one of twelve GA lots. One lot of GA (Copaxone P53974) was used for immunization. […] Twenty female CSJLF1/JRj mice (Janvier Labs), approximately 8-12 weeks of age, were immunized by injection of 0.1 mL injection volume into four footpads (about 10 μL into each of the front footpad, 40 μL into each of the hind footpad) on Day 0. […] Samples were prepared using TaqMan Universal PCR Master Mix II (Life Technologies) and run in 96-well plates using a Real-Time PCR system (7500, Life Technologies) using the following RT-PCR program: The levels of cytokine mRNA were calculated using a standard ΔΔCT method as described previously.

[4] = BALB/cByJ, immunized GA Intraplantar
[5] = BALB/cByJ, immunized Mannitol Intraplantar
[6] = C57BL10J, immunized Mannitol Intraplantar
[7] = CD-1, immunized GA Intraplantar
[8] = CD-1, immunized Mannitol Intraplantar

Molecule	IL-2 secretion response ratio (treated cell medium to control DCCM1 medium) [1, 4]	IL-2 secretion response ratio (treated cell medium to control DCCM1 medium) [1, 5]	IL-2 secretion response ratio (treated cell medium to control DCCM1 medium) [1, 6]	IL-2 secretion response ratio (treated cell medium to control DCCM1 medium) [1, 7]	IL-2 secretion response ratio (treated cell medium to control DCCM1 medium) [1, 8]	IL-5 mRNA Fold Change ([2]; Group 3 (mice immunized with GA-M2 Mylan GMA), 2.5 μg/mL, normalized to Actβ) [fold]	IL-5 mRNA Fold Change ([2]; Group 4 (mice immunized with GA-C2 Copaxone), 2.5 μg/mL, normalized to Actβ) [fold]	IL-5 mRNA Fold Change ([2]; Group ID 3, 2.5 μg/mL, normalized to GAPDH) [fold]	IL-5 mRNA Fold Change ([2]; Group ID 4, 2.5 μg/mL, normalized to GAPDH) [fold]	IL-5 mRNA/B-Actin Fold Change ([3]; normalized to B-Actin)	IL-5 mRNA/GAPDH Fold Change [3]	IL-5 mRNA/GAPDH Fold Change ([3]; ΔΔCT)	IL-5 mRNA Fold Change ([2]; Group 3 (mice immunized with GA-M2 Mylan GMA), 10 μg/mL, normalized to Actβ) [fold]	IL-5 mRNA Fold Change ([2]; Group 4 (mice immunized with GA-C2 Copaxone), 10 μg/mL, normalized to Actβ) [fold]	IL-5 mRNA Fold Change ([2]; Group ID 3, 10 μg/mL, normalized to GAPDH) [fold]	IL-5 mRNA Fold Change ([2]; Group ID 4, 10 μg/mL, normalized to GAPDH) [fold]
Concanavalin A [ConA, reference compound]	229.32	281.66	28.71	85.01	68.22	19.1	27.8	21.1	59.4	23.6 fold and 20.9 fold and 21.3 fold and 21.4 fold	23.6 fold and 20.0 fold and 20.6 fold and 22.3 fold	25.7 fold and 32.7 fold and 22.2 fold and 20.8 fold and 26.0 fold and 25.2 fold and 30.3 fold and 29.3 fold	–	–	–	–
B1	0.97	0.97	0.98	0.98	1.28	–	–	–	–	–	–	–	0.6	1.1	0.6	2.3
